Source: patent US20190218187A1, “Novel 5-substituted imidazolylmethyl derivatives” (Bayer CropScience Aktiengesellschaft, priority 2016, published 2019)
Read-outs that look alike come from different tables or passages of the source.

Assays:
[1] = LogP by HPLC on reversed phase columns (EEC directive 79/831 Annex V.A8); assay type: physicochemical; details: method [a]: LC-UV, acidic range, 0.1% formic acid in water and acetonitrile as eluent (linear gradient 10% to 95% acetonitrile); for chromatographic logP: reversed phase HPLC column
Protocol: [table] If more than one LogP value is available within the same method, all the values are given and separated by “+”. Calibration was done with straight-chain alkan2-ones (with 3 to 16 carbon atoms) with known LogP values (measurement of LogP values using retention times with linear interpolation between successive alkanones). Lambda-max-values were determined using UV-spectra from 200 nm to 400 nm and the peak values of the chromatographic signals.

Septoria tritici = test: In vivo preventive test on Septoria tritici (leaf spot on wheat); details: Zymoseptoria tritici, 576 h, read-out: efficacy
Protocol: Example B: In Vivo Preventive Test on Septoria tritici (Leaf Spot on Wheat)
(§1) The active ingredients are made soluble and homogenized in a mixture of Dimethyl sulfoxide/Acetone/Tween® 80 and then diluted in water to the desired concentration.
The young plants of wheat are treated by spraying the active ingredient prepared as described above. Control plants are treated only with an aqueous solution of Acetone/Dimethyl sulfoxide/Tween® 80.
After 24 hours, the plants are contaminated by spraying the leaves with an aqueous suspension of Septoria tritici spores. The contaminated wheat plants are incubated for 72 hours at 18° C. and at 100% relative humidity and then for 21 days at 20° C. and at 90% relative humidity.
The test is evaluated 24 days after the inoculation. 0% means an efficacy which corresponds to that of the control plants while an efficacy of 100% means that no disease is observed.

Sphaerotheca fuliginea = test: In vivo preventive test on Sphaerotheca fuliginea (powdery mildew on cucurbits); details: Podosphaera fuliginea, 360 h, read-out: efficacy
Protocol: Example C: In Vivo Preventive Test on Sphaerotheca fuliginea (Powdery Mildew on Cucurbits)
as §1
The young plants of gherkin are treated by spraying the active ingredient prepared as described above. Control plants are treated only with an aqueous solution of Acetone/Dimethyl sulfoxide/Tween® 80.
After 24 hours, the plants are contaminated by spraying the leaves with an aqueous suspension of Sphaerotheca fuliginea spores. The contaminated gherkin plants are incubated for 72 hours at 18° C. and at 100% relative humidity and then for 12 days at 20° C. and at 70-80% relative humidity.
The test is evaluated 15 days after the inoculation. 0% means an efficacy which corresponds to that of the control plants while an efficacy of 100% means that no disease is observed.

[2] = 500 ppm of active ingredient, wheat plants, preventive spray, evaluated 24 days after inoculation, 100% = no disease
[3] = 500 ppm of active ingredient, gherkin plants, preventive spray, evaluated 15 days after inoculation, 100% = no disease

Row | LogP [1] | Structure (SMILES) | other results
1 | 4.18 ^[a] | CC(C)(C)c1ccc(CCC(O)(Cn2cncc2C#N)C2(Cl)CC2)cc1 (stereo not drawn) [I-01] | 
2 |  | CC(C)(C)C(O)(CCc1ccc(Cl)cc1)Cn1cncc1C#N (stereo not drawn) [I-02, 3-[2-[2-(4-chlorophenyl)ethyl]-2-hydroxy-3,3-dimethyl-butyl]imidazole-4-carbonitrile] | chromatographic logP [1]: 3.31; pest or weed control at 500 ppm (Septoria tritici; [2]): 90 to 100%; pest or weed control at 500 ppm (Sphaerotheca fuliginea; [3]): 90 to 100%
3 |  | N#Cc1cncn1CC(O)(CCc1ccc(C(F)(F)F)cc1)C1(F)CC1 (stereo not drawn) [I-03, 3-[2-(1-fluorocyclopropyl)-2-hydroxy-4-[4-(trifluoromethyl)phenyl]butyl]imidazole-4-carbonitrile] | chromatographic logP [1]: 3.15; pest or weed control at 500 ppm (Septoria tritici; [2]): 90 to 100%; pest or weed control at 500 ppm (Sphaerotheca fuliginea; [3]): 90 to 100%
4 | 2.78 ^[a] | CC(C)(C)C(O)(CCc1ccc(Cl)cc1)Cn1cncc1Cl (stereo not drawn) [I-04] | 
5 | 3.02 ^[a] | CC(C)(C)C(O)(CCc1ccc(Cl)cc1)Cn1cncc1C=O (stereo not drawn) [I-05] | 
6 |  | CC(C)(C)C(O)(CCc1ccc(Cl)cc1)Cn1cncc1F (stereo not drawn) [I-06, 1-(4-chlorophenyl)-3-[(5-fluoroimidazol-1-yl)methyl]-4,4-dimethyl-pentan-3-ol] | chromatographic logP [1]: 2.25; pest or weed control at 500 ppm (Septoria tritici; [2]): 80 to 89%; pest or weed control at 500 ppm (Sphaerotheca fuliginea; [3]): 90 to 100%
7 | 2.88 ^[a] | N#Cc1cncn1CC(O)(CCc1ccccc1)C1(Cl)CC1 (stereo not drawn) [I-07] | 
8 | 3.48 ^[a] | N#Cc1cncn1CC(O)(CCc1ccc(C(F)(F)F)cc1)C1(Cl)CC1 (stereo not drawn) [I-08] | 
9 | 3.78 ^[a] | CC(C)(C)c1ccc(CCC(O)(Cn2cncc2C#N)C2(F)CC2)cc1 (stereo not drawn) [I-09] | 
10 |  | N#Cc1cncn1CC(O)(CCc1ccccc1)C1(F)CC1 (stereo not drawn) [I-10, 3-[2-(1-fluorocyclopropyl)-2-hydroxy-4-phenyl-butyl]imidazole-4-carbonitrile] | chromatographic logP [1]: 2.53; pest or weed control at 500 ppm (Septoria tritici; [2]): 90 to 100%; pest or weed control at 500 ppm (Sphaerotheca fuliginea; [3]): 90 to 100%
11 | 2.75 ^[a] | CC(C)(C)C(O)(CCc1ccc(Cl)cc1)Cn1cncc1Br (stereo not drawn) [I-11] | 
12 | 2.73 ^[a] | OC(CCc1ccc(Cl)cc1)(Cn1cncc1Cl)C1(Cl)CC1 (stereo not drawn) [I-12] | 
13 |  | CC(C)(CC(O)(Cn1cncc1C#N)C1(Cl)CC1)c1ccccc1 (stereo not drawn) [I-13, 1-[2-(1-chlorocyclopropyl)-2-hydroxy-4-methyl-4-phenylpentyl]-1H-imidazole-5-carbonitrile] | chromatographic logP [1]: 3.09; pest or weed control at 500 ppm (Septoria tritici): 90 to 100%; pest or weed control at 500 ppm (Sphaerotheca fuliginea): 90 to 100%
14 | 3.29 ^[a] | N#Cc1cncn1CC(O)(CCc1ccc(OC(F)(F)F)cc1)C1(F)CC1 (stereo not drawn) [I-14] | 
15 | 2.69 ^[a] | N#Cc1cncn1CC(O)(CCc1ccc(F)cc1F)C1(F)CC1 (stereo not drawn) [I-15] | 
16 | 3.69 ^[a] | N#Cc1cncn1CC(O)(CCc1ccc(OC(F)(F)F)c(F)c1)C1(Cl)CC1 (stereo not drawn) [I-16] | 
17 | 2.90 ^[a] | Cc1ccc(CCC(O)(Cn2cncc2C#N)C2(F)CC2)cc1 (stereo not drawn) [I-17] | 
18 |  | N#Cc1cncn1CC(O)(CCc1ccc(Cl)cc1)C1(Cl)CC1 (stereo not drawn) [I-18, 3-[2-(1-chlorocyclopropyl)-4-(4-chlorophenyl)-2-hydroxy-butyl]imidazole-4-carbonitrile] | chromatographic logP [1]: 3.42; pest or weed control at 500 ppm (Septoria tritici; [2]): 90 to 100%; pest or weed control at 500 ppm (Sphaerotheca fuliginea; [3]): 90 to 100%
19 | 3.23 ^[a] | Cc1ccc(CCC(O)(Cn2cncc2C#N)C2(Cl)CC2)cc1 (stereo not drawn) [I-19] | 
20 | 2.90 ^[a] | CC(C)(C)C(O)(CCc1ccccc1)Cn1cncc1C#N (stereo not drawn) [I-20] | 
21 | 3.55 ^[a] | CC1(c2ccc(CCC(O)(Cn3cncc3C#N)C3(F)CC3)cc2)CC1 (stereo not drawn) [I-21] | 
22 | 2.98 ^[a] | N#Cc1cncn1CC(O)(CCc1ccc(Cl)cc1)C1(F)CC1 (stereo not drawn) [I-22] | 
23 | 0.53 ^[a] | N#Cc1cncn1CC(O)(CCc1cccnc1)C1(F)CC1 (stereo not drawn) [I-23] | 
24 | 4.03 ^[a] | CC1(c2ccc(CCC(O)(Cn3cncc3C#N)C3(Cl)CC3)cc2)CC1 (stereo not drawn) [I-24] | 
25 | 3.00 ^[a] | N#Cc1cncn1CC(O)(CCc1ccc(Cl)cc1F)C1(F)CC1 (stereo not drawn) [I-25] | 
26 | 2.56 ^[a] | N#Cc1cncn1CC(O)(CCc1ccccc1F)C1(F)CC1 (stereo not drawn) [I-26] | 
27 | 2.03 ^[a] | N#Cc1cncn1CC(O)(CCc1ccc(Cl)nc1)C1(F)CC1 (stereo not drawn) [I-27] | 

Row | LogP [1] | Structure (SMILES) | other results
28 |  | N#Cc1cncn1CC(O)(CCc1ccc(Cl)nc1)C1(Cl)CC1 (stereo not drawn) [I-28, 3-[2-(1-chlorocyclopropyl)-4-(6-chloro-3-pyridyl)-2-hydroxy-butyl]imidazole-4-carbonitrile] | chromatographic logP [1]: 2.39; pest or weed control at 500 ppm (Septoria tritici; [2]): 90 to 100%; pest or weed control at 500 ppm (Sphaerotheca fuliginea; [3]): 90 to 100%
29 | 3.22 ^[a] | Cc1ccc(CCC(O)(Cn2cncc2C#N)C(C)(C)C)cc1 (stereo not drawn) [I-29] | 
30 | 2.90 ^[a] | N#Cc1cncn1CC(O)(CCc1ccc(Cl)cc1)C1CC1 (stereo not drawn) [I-30] | 
31 | 2.49 ^[a] | N#Cc1cncn1CC(O)(CCc1ccccc1)C1CC1 (stereo not drawn) [I-31] | 
32 | 3.41 ^[a] | N#Cc1cncn1CC(O)(CCc1ccc(Cl)cc1F)C1(Cl)CC1 (stereo not drawn) [I-32] | 
33 | 2.20 ^[a] | N#Cc1cncn1CC(O)(CCc1ccc(F)nc1)C1(Cl)CC1 (stereo not drawn) [I-33] | 
34 | 1.88 ^[a] | N#Cc1cncn1CC(O)(CCc1ccc(F)nc1)C1(F)CC1 (stereo not drawn) [I-34] | 
35 | 2.95 ^[a] | CC(C)C(O)(CCc1ccc(Cl)cc1)Cn1cncc1C#N (stereo not drawn) [I-35] | 
36 | 2.53 ^[a] | CC(C)C(O)(CCc1ccccc1)Cn1cncc1C#N (stereo not drawn) [I-36] | 
37 | 3.23 ^[a] | N#Cc1cncn1CC(O)(CCc1ccc(Cl)cc1)C1CCC1 (stereo not drawn) [I-37] | 
38 | 2.80 ^[a] | N#Cc1cncn1CC(O)(CCc1ccccc1)C1CCC1 (stereo not drawn) [I-38] | 
39 | 3.46 ^[a] | N#Cc1cncn1CC(O)(CCc1ccccc1)c1ccc(Cl)cc1 (stereo not drawn) [I-39] | 
40 | 3.96 ^[a] | N#Cc1cncn1CC(O)(CCc1ccc(Cl)cc1)c1ccc(Cl)cc1 (stereo not drawn) [I-40] | 
41 | 3.42 ^[a] | CC(C)(C)C(O)(CCc1ccc(C(F)(F)F)cc1)Cn1cncc1C#N (stereo not drawn) [I-41] | 
42 | 2.62 ^[a] | N#Cc1cncn1CC(O)(CCc1ccccc1)CC1CC1 (stereo not drawn) [I-42] | 
43 | 3.02 ^[a] | N#Cc1cncn1CC(O)(CCc1ccc(Cl)cc1)CC1CC1 (stereo not drawn) [I-43] | 
44 | 3.64 ^[a] | N#Cc1cncn1CC(O)(CCc1ccc(Cl)cc1F)c1ccc(Cl)cc1 (stereo not drawn) [I-44] | 
45 | 2.74 ^[a] | N#Cc1cncn1CC(O)(CCc1ccccc1)c1ccccc1 (stereo not drawn) [I-45] | 
46 |  | N#Cc1cncn1CC(O)(CCc1ccc(Cl)cc1)c1ccccc1 (stereo not drawn) [I-46, 3-[4-(4-chlorophenyl)-2-hydroxy-2-phenyl-butyl]imidazole-4-carbonitrile] | chromatographic logP [1]: 3.13; pest or weed control at 500 ppm (Septoria tritici; [2]): 90 to 100%; pest or weed control at 500 ppm (Sphaerotheca fuliginea; [3]): 90 to 100%
47 | 2.80 ^[a] | CC1(C(O)(CCc2ccccc2)Cn2cncc2C#N)CC1 (stereo not drawn) [I-47] | 
48 | 3.22 ^[a] | CC1(C(O)(CCc2ccc(Cl)cc2)Cn2cncc2C#N)CC1 (stereo not drawn) [I-48] | 
49 | 3.37 ^[a] | N#Cc1cncn1CC(O)(CCc1ccccc1)c1ccc(Cl)cc1F (stereo not drawn) [I-49] | 
50 | 3.75 ^[a] | N#Cc1cncn1CC(O)(CCc1ccc(Cl)cc1F)c1ccc(Cl)cc1F (stereo not drawn) [I-50] | 
51 | 3.79 ^[a] | N#Cc1cncn1CC(O)(CCc1ccc(Cl)cc1)c1ccc(Cl)cc1F (stereo not drawn) [I-51] | 
52 | 3.23 ^[a] | N#Cc1cncn1CC(O)(CCc1ccc(Cl)cc1F)c1ccccc1 (stereo not drawn) [I-52] | 
53 |  | N#Cc1cncn1CC(O)(CCC1Cc2ccccc2O1)C1(F)CC1 (stereo not drawn) [I-53, 1-[4-(2,3-dihydro-1-benzofuran-2-yl)-2-(1-fluorocyclopropyl)-2-hydroxybutyl]-1H-imidazole-5-carbonitrile] | chromatographic logP [1]: 2.61
